# Test results as given in patent publication US20200129434A1, “LIPOSOME COMPOSITIONS AND USES THEREOF” (TECHNION RESEARCH & DEVELOPMENT FOUNDATION LIMITED, priority 2017, published 2020).
# How the values were obtained:
# [1] = Evaluation of liposome compositions for delivery of curcumin (solubility, drug stability, half-life); format: physicochemical; conditions: curcumin loaded in the cholesterol/PA/PC liposome formulation
# Excerpt: To test various liposome compositions, the water insoluble drug curcumin was employed as the therapeutic agent to be incorporated into the liposome. Curcumin, has been used for many clinical purposes, including as an antioxidant, antibacterial, anti-inflammatory agent, anti-neurodegenerative processes and anticancer agent. Curcumin however, is highly water-insoluble, has a very short biological half-life, and poor pharmacokinetics. Previous attempts at liposomes for the delivery of curcumin comprised cholesterol (Ch), 1,2-dioleyl-sn-glycero-3-phosphocholine (DOPC), 1,2-dioleyl-sn-glycero-3-phosphoethanolamine (DOPE), and 1,2-dioleoyl-sn-glycero-3-[phosphor-L-serine] (DOPS), usually in equimolar amounts.
# Various compositions of liposomes for delivery of curcumin were tested and evaluated for drug loading, drug stability and half-life, and effective targeting in the body. […] The targeting peptide was dissolved in chloroform/methanol and added to the mixture at 0.1-2% by molar ratio, mol % or weight %.
# Loading of the drug into the liposome was achieved by pre-dissolving the target drug during the preparation of the liposome, thereby enabling a desired and reproducible concentration of the drug in the most stabilized environment.
# U87 glioblastoma cells [2] = experiment: Survival studies in U87 transferred mice; format: in vivo, SCID immuno-deficient mice
# Excerpt: (§1) In order to assess the efficacy of the liposome composition in delivering a therapeutic agent to the brain, glioblastoma in a mouse model was employed. Curcumin was integrated into liposomes comprising cholesterol: phosphatidyl phosphoric acid: phosphatidyl choline in molar ratios of 35:7:58. The targeting peptide was present at 0.5% by molar ratio, mol % or weight %, and the curcumin was at a final concentration of 1% by molar ratio, mol % or weight %. The resulting liposomes where lyophilized, hydrated and downsized into a diameter of 0.1 μm±20%.
# (§2) These liposomes comprised cholesterol: phosphatidyl phosphoric acid: phosphatidyl choline in molar ratios of 40:5:55. The molar concentration of the drug and targeting peptide were unchanged.
# As a model of glioblastoma, SCID immuno-deficient mice were implanted with U87 glioblastoma cells. The U87 cells had previously been transfected with a luciferase gene, such that upon intraperitoneally injection of the mice with luciferin, the cells would fluoresce, allowing for accurate quantification and imaging of the tumor using the IVIS 200 imaging system. The degree of fluorescence measured was proportional to the number of cancer cells, and therefore indicated the cancer growth.
# Curcumin and TMZ in targeted liposome carriers, were administered intraperitoneally to the mice 3 days after injection of the tumor cells and for at least 3 weeks. […]
# U87 glioblastoma cells [3] = experiment: Tumor growth in the mouse model of glioblastoma, luciferase imaging with IVIS 200; format: in vivo, SCID immuno-deficient mice; conditions: 4 mg/kg daily intraperitoneally, FIG. 3A
# Excerpt: as §1, §2
# As a model of glioblastoma, SCID immuno-deficient mice were implanted with U87 glioblastoma cells. The U87 cells had previously been transfected with a luciferase gene, such that upon intraperitoneally injection of the mice with luciferin, the cells would fluoresce, allowing for accurate quantification and imaging of the tumor using the IVIS 200 imaging system. The degree of fluorescence measured was proportional to the number of cancer cells, and therefore indicated the cancer growth. […]
# By using the luciferase imaging system, quantification of the relative tumor size was possible (FIG. 3). […]
SMILES,degradation and biological half-life of the drug [1],survival compared with control (in words) (U87 glioblastoma cells [2]; 4 mg drug/kg mouse daily),latency period before tumor growth (U87 glioblastoma cells [3]),"survival time of all mice after tumor cell transfer (U87 glioblastoma cells [2]; daily dosing 4 mg/kg, FIG. 4)"
"COc1cc(/C=C/C(=O)CC(=O)/C=C/c2ccc(O)c(OC)c2)ccc1O [free curcumin, curcumin]",protect the drug from degradation and prolong its biological half-life,survival was not significantly extended,,
"Cn1nnc2c(C(N)=O)ncn2c1=O [free TMZ, Temozolomide]",,,2 weeks,≤ 30 days
